Reference: ChEMBL document CHEMBL1146526, “Two unusual acetogenins from the roots of Annona salzmanii” (J Nat Prod, 2003)
≈ marks a conversion by molar mass, not a printed value.

Assays:
KB = test: Cytotoxicity against human KB cells; type: functional
[1] = Cytotoxicity against african green monkey Vero cells after 24 hrs; type: cell-based; settings: chlorocebus sabaeus, read-out: ED50

Compound	ED50 (KB) [×10⁻⁴ ug/ml]	EC50 (KB; Homo sapiens, KB, read-out: ED50 (the source's name)) [µg/mL]	CC50 at 24 h [1] [µg/mL]
CCCCCCCCCC[C@@H](O)[C@@H](O)CC[C@H](O)[C@@H]1CC[C@@H]([C@@H](O)CCCCCCCCCCC(O)CC2=CC(C)(O)OC2=O)O1 (stereo not given in full) [PARISIN]	1	–	–
CCCCC[C@H](O)[C@@H](O)CCC[C@@H](O)[C@@H]1CC[C@@H](C2CC(O)[C@@H]([C@@H](O)CCCCCCCCCCCCC3=CC(C)OC3=O)O2)O1 (stereo not given in full) [SALZMANOLIN]	–	0.001 (≈ 0.00153 µM)	0.01 (≈ 0.0153 µM)
CC[C@]1(O)C[C@@H]2CN(CCc3c([nH]c4ccccc34)[C@@](C(=O)OC)(c3cc4c(cc3OC)N(C)[C@H]3[C@@](O)(C(=O)OC)[C@H](OC(C)=O)[C@]5(CC)C=CCN6CC[C@]43[C@@H]65)C2)C1 [VINBLASTINE]	0.1	–	> 0.1
